Experimental data published in PubChem BioAssay AID504857 (Southern Research Specialized Biocontainment Screening …, 2011).
pIC50: −log10 of the molar value. Calls of active or inactive are those of the source. No rule for the calls is given here.

Experiments:
[1] = test system: Mycobacterium tuberculosis H37Rv growth in 7H9 media; test: M. tuberculosis growth inhibition, dose response, H37Rv, 7H9 media, purified and synthesized compounds, set 4 (AID 504857); conditions: for pIC50: measured here: M. tuberculosis growth IC50
[2] = as above; conditions: Mycobacterium tuberculosis H37Rv growth in 7H9 media; at 100 µM (top of the series)

Structure (SMILES) | IC90 [1] [nM] | pIC50 [1] | growth inhibition [2]
CCOc1ccc(-c2cc(C)[n+](CCc3ccc(OC)c(OC)c3)c(-c3ccc(OCC)cc3)c2)cc1 | 1110 | 6.11 | –
COc1cccc(NC(=O)CSc2nc3c(c(=O)[nH]2)CCC3)c1 | – | – | -2.55% (inactive)
O=c1[nH]c(=S)[nH]c2ccccc12 | – | – | -2.47% (inactive)
O=C(CSc1nccc(=O)[nH]1)NC1CCCCC1 | – | – | 6.38% (inactive)
O=C(CSc1nc2ccccc2c(=O)[nH]1)NC1CCCCC1 | 400 | 6.60 | –
Cc1ccc(NC(=O)COC(=O)CCc2c[nH]c3ccccc23)cc1[N+](=O)[O-] | 4680 | 5.59 | –
CN(C(=O)CSc1nc2ccccc2c(=O)[nH]1)C1CCCCC1 | – | – | 4.85% (inactive)
Cc1cccc(-c2oc3ccc(-c4ccc5c(c4)OCO5)cc3c2C#Cc2cncn2C)c1 | 3130 | 5.59 | –
Cc1[nH]c2ccccc2c1C(=O)COC(=O)c1ccc([N+](=O)[O-])s1 | 2930 | 5.77 | –
O=C(CSc1nc2ccccc2c(=O)[nH]1)NC1CCCC1 | 710 | 6.62 | –
O=C(CSc1nc2ccccc2c(=O)[nH]1)N1CCOCC1 | – | – | 6.76% (inactive)
COC(=O)C(C)Oc1ccc(Cc2ncc(C(F)(F)F)cc2Cl)cc1 (stereo not drawn) | 7110 | 5.36 | –
Cc1cc(C)n2nc(N)c(N=Nc3ccccc3)c2n1 | 6310 | 5.33 | –
Cc1nc(SCC(=O)N(C)c2ccccc2)[nH]c(=O)c1C | – | – | -2.18% (inactive)
COc1cccc(NC(=O)CSc2nc3ccccc3c(=O)[nH]2)c1 | – | – | 7.54% (inactive)
CC(C)CCNC(=O)CSc1nc2c(c(=O)[nH]1)CCC2 | 1850 | 5.94 | –
CC[N+](C)(CC)CCCCOc1ccc2c(c1)C(=O)c1cc(OCCCC[N+](C)(CC)CC)ccc1-2 | 3300 | 5.61 | –
O=c1[nH]c(SCc2ccccc2Cl)nc2c1CCCC2 | – | – | 9.36% (inactive)
Nc1cc(=O)[nH]c(SCC(=O)NC2CCCCC2)n1 | – | – | -0.79% (inactive)
CCOC1OC(=O)C(Cl)=C1Nc1ccccc1C (stereo not drawn) | 9910 | 5.42 | –

Structure (SMILES) | IC90 [1] [nM] | pIC50 [1] | growth inhibition [2]
Cc1ccc(NC(=O)CSc2nc3ccccc3c(=O)[nH]2)cc1Cl | – | – | 0.04% (inactive)
CC1CCN(C(=O)C2CCN(c3nnc(-n4cccc4)s3)CC2)CC1 | 4870 | 5.55 | –
O=C(CSc1nc2ccccc2c(=O)[nH]1)NCc1ccc(Cl)cc1 | 1270 | 6.12 | –
CC(C)CCNC(=O)CSc1nc2ccccc2c(=O)[nH]1 | 20 | > 8.00 | –
CCOC(=O)CSc1nc(C)c(C)c(=O)[nH]1 | – | – | 7.45% (inactive)
CNC(=O)CSc1nc2ccccc2c(=O)[nH]1 | 89800 | 4.26 | –
CC1CCN(C(=O)CSc2nc3ccccc3c(=O)[nH]2)CC1 | – | – | 2.61% (inactive)
COC(=O)c1ccc(CNc2c(N3CCCC3)c(=O)c2=O)cc1 | – | – | 1.55% (inactive)
NC(=O)CSc1nc2ccccc2c(=O)[nH]1 | – | – | 5.87% (inactive)
CCC(Sc1nc2ccccc2c(=O)[nH]1)C(=O)Nc1cccc(OC)c1 (stereo not drawn) | – | – | 18.9% (inactive)
O=C(CSc1ncccn1)NC1CCCCC1 | – | – | -3.06% (inactive)
CCC(Sc1nc2c(c(=O)[nH]1)CCC2)C(=O)Nc1cccc(OC)c1 (stereo not drawn) | – | – | -2.13% (inactive)
Cc1nc(SCC(N)=O)[nH]c(=O)c1C | – | – | 3.13% (inactive)
Cc1cc(Br)ccc1NC(=O)c1cnc(N2CCN(c3ccccn3)CC2)c2ccccc12 | 35000 | 5.99 | –
Cc1nc(SCc2ccccc2Cl)[nH]c(=O)c1C | – | – | -1.2% (inactive)
Cc1cc(=O)[nH]c(SCC(=O)NC2CCCCC2)n1 | – | – | -5.77% (inactive)
CN(C)C(=O)CSc1nc2ccccc2c(=O)[nH]1 | – | – | 10.3% (inactive)
COc1ccc(NC(=O)CSc2nc3ccccc3c(=O)[nH]2)cc1 | – | – | 10.6% (inactive)
Cc1c[nH]c(=S)[nH]c1=O | – | – | 2.29% (inactive)
CCSc1nc(C)c(C)c(=O)[nH]1 | – | – | 1.25% (inactive)

Structure (SMILES) | IC90 [1] [nM] | pIC50 [1] | growth inhibition [2]
CCSc1nc2ccccc2c(=O)[nH]1 | – | – | 2.57% (inactive)
c1ccc(/N=C2\N=C(Nc3ccccn3)c3ccccc32)nc1 | 1360 | 5.99 | –
COC(=O)C(Nc1nc(SCC(=O)NC2CCCCC2)nc2ccccc12)c1ccccc1 (stereo not drawn) | – | – | 0.63% (inactive)
CC(C)NC(=O)CSc1nc2ccccc2c(=O)[nH]1 | 15200 | 4.99 | –
CN1CCC(NC(=O)CSc2nc3ccccc3c(=O)[nH]2)CC1 | – | – | 4.15% (inactive)
Cc1cccc(/C=C/C(=O)c2ccc([N+](=O)[O-])o2)c1 | 1120 | 6.17 | –
O=C(CSc1nc2c(c(=O)[nH]1)CCCC2)NC1CCCCC1 | < 10 | > 8.00 | –
O=C(CSc1nc2c(c(=O)[nH]1)CCC2)NC1CCCCC1 | < 10 | > 8.00 | –
Cn1c(SCC(=O)NC2CCCCC2)nc2ccccc2c1=O | – | – | 5.15% (inactive)
Cc1cc(=O)[nH]c(=S)[nH]1 | – | – | -3.77% (inactive)
Cc1nc(SCC(=O)NCCC(C)C)[nH]c(=O)c1C | 9970 | 5.24 | –
Cc1ccc(C(=O)N/N=C(/CC(=O)c2cccs2)C(F)(F)F)cc1 | 2800 | 5.91 | –
CCC(Sc1nc2ccccc2c(=O)[nH]1)C(=O)NC1CCCCC1 (stereo not drawn) | – | – | 0.65% (inactive)
CC(Sc1nc2ccccc2c(=O)[nH]1)C(=O)NC1CCCCC1 (stereo not drawn) | – | – | 3.48% (inactive)
Cc1nc(SCC(=O)NC2CCCC2)[nH]c(=O)c1C | 10900 | 5.20 | –
Cc1[nH]c(=S)[nH]c(=O)c1C | – | – | 3.68% (inactive)
Cc1cnc(SCC(=O)NC2CCCCC2)[nH]c1=O | – | – | 4.36% (inactive)
Nc1c(C(=O)NC2CCCCC2)nsc1C(=O)OCC(=O)NC1CCCCC1 | – | 5.35 | –
O=C(CSc1ccccn1)NC1CCCCC1 | – | – | 5.02% (inactive)
